{
  "source": "ChEMBL document CHEMBL4002561",
  "about": "“Discovery of resveratrol derivatives as novel LSD1 inhibitors: Design, synthesis and their biological evaluation” (Eur J Med Chem, 2017)",
  "key": {"[1]": {"tested_on": "MGC-803", "experiment": "Effect on LSD1 expression in human MGC803 cells up to 2.5 uM after 5 days by DAPI staining based immunofluorescence assay", "format": "functional, cell-based"}, "[2]": {"target": "Lysine-specific histone demethylase 1A (Homo sapiens, UniProt O60341)", "description": "Inhibition of recombinant full length LSD1 (unknown origin) expressed in Escherichia coli BL21 (DE) using H3K4me2 substrate by fluorescence assay"}},
  "note": "pIC50: −log10 of the molar value. The source made the active and inactive calls. The rule behind the calls is not given here.",
  "data": [
    {"compound": "N/C(=N\\O)c1ccc(/C=C/c2cc(O)c(O)cc2Br)cc1", "values": [
      {"measurement": "Activity", "setting": "[1]", "result": "inactive"}
    ]},
    {"compound": "N/C(=N\\O)c1cccc(/C=C/c2cc(O)c(O)cc2Br)c1", "values": [
      {"measurement": "Activity", "setting": "[1]", "result": "inactive"}
    ]},
    {"compound": "Oc1ccc(/C=C/c2cc(O)cc(O)c2)cc1", "note": "[RESVERATROL]", "values": [
      {"measurement": "pIC50", "setting": "[2]", "result": 4.99}
    ]}
  ]
}
